Results: the kinase profiling compilation of Christmann-Franck et al. (2016)

Assays:
Experiment in all cases: KINOMEscan competition binding
[1] = biological target: MAPK9 (human) (UniProt P45984)
[2] = biological target: ADCK4 (human) (UniProt Q96D53); settings: compound 10.0 µM
[3] = biological target: NLK (human) (UniProt Q9UBE8); settings: compound 10.0 µM
[4] = biological target: IRAK1 (human) (UniProt P51617); settings: compound 10.0 µM
[5] = biological target: BRSK2 (human) (UniProt Q8IWQ3); settings: compound 10.0 µM
[6] = biological target: STK36 (human) (UniProt Q9NRP7); settings: compound 10.0 µM
[7] = biological target: RPS6KB1 (human) (UniProt P23443); settings: compound 10.0 µM
[8] = biological target: PAK7 (human) (UniProt Q9P286); settings: compound 10.0 µM
[9] = biological target: NUAK1 (human) (UniProt O60285); settings: compound 10.0 µM
[10] = biological target: CHEK1 (human) (UniProt O14757); settings: compound 10.0 µM
[11] = biological target: INSRR (human) (UniProt P14616); settings: compound 10.0 µM
Chain of INSRR (human) (P14616 whole entry, looked up): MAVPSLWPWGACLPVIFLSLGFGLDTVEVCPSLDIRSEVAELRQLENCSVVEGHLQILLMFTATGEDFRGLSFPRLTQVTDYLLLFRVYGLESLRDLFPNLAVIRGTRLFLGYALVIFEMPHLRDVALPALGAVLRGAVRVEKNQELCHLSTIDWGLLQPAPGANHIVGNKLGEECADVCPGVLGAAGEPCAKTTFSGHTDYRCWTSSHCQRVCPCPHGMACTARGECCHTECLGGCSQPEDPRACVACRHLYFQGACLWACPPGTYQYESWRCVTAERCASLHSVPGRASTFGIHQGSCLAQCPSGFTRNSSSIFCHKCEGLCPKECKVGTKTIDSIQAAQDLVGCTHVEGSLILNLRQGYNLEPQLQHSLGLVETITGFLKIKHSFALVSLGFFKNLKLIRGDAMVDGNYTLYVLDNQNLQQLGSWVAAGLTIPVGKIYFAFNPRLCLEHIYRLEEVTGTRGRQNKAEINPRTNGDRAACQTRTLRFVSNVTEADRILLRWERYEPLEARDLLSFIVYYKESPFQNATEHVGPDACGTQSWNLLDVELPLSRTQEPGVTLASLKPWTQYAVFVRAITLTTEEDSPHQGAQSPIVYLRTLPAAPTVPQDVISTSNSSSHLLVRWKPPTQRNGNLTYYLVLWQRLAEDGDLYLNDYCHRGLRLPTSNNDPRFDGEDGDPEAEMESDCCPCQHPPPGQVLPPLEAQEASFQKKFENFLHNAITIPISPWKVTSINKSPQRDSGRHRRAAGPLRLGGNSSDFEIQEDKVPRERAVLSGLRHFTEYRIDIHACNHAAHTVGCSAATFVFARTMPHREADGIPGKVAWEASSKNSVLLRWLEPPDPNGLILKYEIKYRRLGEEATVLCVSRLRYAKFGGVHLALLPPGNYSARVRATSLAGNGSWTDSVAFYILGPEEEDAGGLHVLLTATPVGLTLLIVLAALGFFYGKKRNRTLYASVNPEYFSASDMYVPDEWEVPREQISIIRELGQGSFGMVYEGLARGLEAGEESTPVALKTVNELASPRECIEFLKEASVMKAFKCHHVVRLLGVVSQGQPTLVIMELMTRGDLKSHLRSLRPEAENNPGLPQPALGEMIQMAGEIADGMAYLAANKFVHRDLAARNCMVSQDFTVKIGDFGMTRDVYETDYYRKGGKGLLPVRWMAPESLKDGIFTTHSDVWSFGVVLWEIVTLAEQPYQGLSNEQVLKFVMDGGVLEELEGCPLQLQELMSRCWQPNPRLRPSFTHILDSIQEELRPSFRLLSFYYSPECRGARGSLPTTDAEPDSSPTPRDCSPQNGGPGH

[12] = biological target: TAOK1 (human) (UniProt Q7L7X3); settings: compound 10.0 µM
[13] = biological target: MARK3 (human) (UniProt P27448); settings: compound 10.0 µM
[14] = biological target: HIPK3 (human) (UniProt Q9H422); settings: compound 10.0 µM
[15] = test system: PIK3CA (human), P42336 [C420R]; settings: compound 10.0 µM
[16] = biological target: CAMK4 (human) (UniProt Q16566); settings: compound 10.0 µM
Chain of CAMK4 (human) (Q16566 whole entry, looked up): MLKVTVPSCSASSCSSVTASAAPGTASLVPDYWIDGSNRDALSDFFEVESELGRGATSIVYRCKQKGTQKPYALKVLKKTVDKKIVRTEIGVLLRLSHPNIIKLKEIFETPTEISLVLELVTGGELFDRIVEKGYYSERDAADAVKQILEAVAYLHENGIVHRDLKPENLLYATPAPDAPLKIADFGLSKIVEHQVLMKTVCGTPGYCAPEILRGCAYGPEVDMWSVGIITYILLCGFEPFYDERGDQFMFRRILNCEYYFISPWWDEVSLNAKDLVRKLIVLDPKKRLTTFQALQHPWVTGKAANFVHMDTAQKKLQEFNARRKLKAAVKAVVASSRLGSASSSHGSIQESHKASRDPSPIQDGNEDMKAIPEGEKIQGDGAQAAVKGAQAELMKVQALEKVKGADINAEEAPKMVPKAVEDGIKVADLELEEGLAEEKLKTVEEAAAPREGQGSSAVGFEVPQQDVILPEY

[17] = biological target: RIOK3 (human) (UniProt O14730); settings: compound 10.0 µM
[18] = biological target: MAP3K7 (human) (UniProt O43318); settings: compound 10.0 µM
[19] = biological target: TEC (human) (UniProt P42680); settings: compound 10.0 µM
[20] = biological target: MARK1 (human) (UniProt Q9P0L2); settings: compound 10.0 µM
Chain of MARK1 (human) (Q9P0L2 whole entry, looked up): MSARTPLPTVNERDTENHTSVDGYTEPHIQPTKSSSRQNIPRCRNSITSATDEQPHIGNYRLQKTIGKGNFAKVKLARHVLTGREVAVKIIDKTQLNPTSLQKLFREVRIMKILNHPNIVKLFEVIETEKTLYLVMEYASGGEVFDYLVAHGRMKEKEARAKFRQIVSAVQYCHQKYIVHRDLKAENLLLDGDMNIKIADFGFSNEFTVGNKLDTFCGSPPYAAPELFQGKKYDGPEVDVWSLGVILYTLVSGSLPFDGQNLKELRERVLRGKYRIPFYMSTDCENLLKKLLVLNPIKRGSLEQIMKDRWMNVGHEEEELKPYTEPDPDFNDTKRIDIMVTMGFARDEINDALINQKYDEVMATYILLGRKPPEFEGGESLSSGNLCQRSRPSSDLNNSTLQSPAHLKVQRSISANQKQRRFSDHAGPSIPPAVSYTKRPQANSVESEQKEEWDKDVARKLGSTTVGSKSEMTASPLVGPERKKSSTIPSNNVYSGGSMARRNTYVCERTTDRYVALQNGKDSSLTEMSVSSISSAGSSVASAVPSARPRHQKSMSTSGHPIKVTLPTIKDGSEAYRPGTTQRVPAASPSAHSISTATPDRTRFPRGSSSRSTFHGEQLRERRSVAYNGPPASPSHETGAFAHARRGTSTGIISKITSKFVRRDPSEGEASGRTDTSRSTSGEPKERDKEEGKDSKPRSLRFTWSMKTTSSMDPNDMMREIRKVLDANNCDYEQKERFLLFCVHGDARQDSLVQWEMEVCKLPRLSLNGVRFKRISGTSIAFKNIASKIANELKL

[21] = biological target: TGFBR1 (human) (UniProt P36897); settings: compound 10.0 µM
[22] = biological target: DAPK1 (human) (UniProt P53355); settings: compound 10.0 µM
[23] = biological target: STK38L (human) (UniProt Q9Y2H1); settings: compound 10.0 µM
[24] = biological target: SYK (human) (UniProt P43405); settings: compound 10.0 µM
[25] = biological target: CDK11B (human) (UniProt P21127); settings: compound 10.0 µM
[26] = biological target: MAP3K10 (human) (UniProt Q02779); settings: compound 10.0 µM
[27] = biological target: OXSR1 (human) (UniProt O95747); settings: compound 10.0 µM
Chain of OXSR1 (human) (O95747 whole entry, looked up): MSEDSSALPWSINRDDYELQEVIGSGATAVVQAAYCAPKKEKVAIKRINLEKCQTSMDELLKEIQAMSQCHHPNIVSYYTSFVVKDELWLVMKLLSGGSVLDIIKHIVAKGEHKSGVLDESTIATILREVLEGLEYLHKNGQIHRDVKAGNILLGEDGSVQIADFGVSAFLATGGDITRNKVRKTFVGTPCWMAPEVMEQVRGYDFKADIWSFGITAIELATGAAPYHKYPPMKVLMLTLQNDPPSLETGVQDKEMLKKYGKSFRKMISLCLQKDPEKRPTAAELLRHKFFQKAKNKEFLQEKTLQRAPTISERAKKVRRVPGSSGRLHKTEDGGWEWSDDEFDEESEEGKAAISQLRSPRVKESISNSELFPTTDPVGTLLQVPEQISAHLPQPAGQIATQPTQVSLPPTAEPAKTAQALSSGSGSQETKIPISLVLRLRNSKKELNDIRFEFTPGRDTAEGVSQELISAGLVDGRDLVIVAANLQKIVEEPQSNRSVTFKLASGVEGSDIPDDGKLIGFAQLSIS

[28] = biological target: DYRK1A (human) (UniProt Q13627); settings: compound 10.0 µM
[29] = biological target: AURKA (human) (UniProt O14965); settings: compound 10.0 µM
[30] = biological target: EPHB2 (human) (UniProt P29323); settings: compound 10.0 µM
[31] = test system: EGFR (human), P00533 [L858R]; settings: compound 10.0 µM
[32] = biological target: NUAK2 (human) (UniProt Q9H093); settings: compound 10.0 µM
[33] = biological target: DDR1 (human) (UniProt Q08345); settings: compound 10.0 µM
[34] = biological target: CSF1R (human) (UniProt P07333); settings: compound 10.0 µM
Chain of CSF1R (human) (P07333 whole entry, looked up): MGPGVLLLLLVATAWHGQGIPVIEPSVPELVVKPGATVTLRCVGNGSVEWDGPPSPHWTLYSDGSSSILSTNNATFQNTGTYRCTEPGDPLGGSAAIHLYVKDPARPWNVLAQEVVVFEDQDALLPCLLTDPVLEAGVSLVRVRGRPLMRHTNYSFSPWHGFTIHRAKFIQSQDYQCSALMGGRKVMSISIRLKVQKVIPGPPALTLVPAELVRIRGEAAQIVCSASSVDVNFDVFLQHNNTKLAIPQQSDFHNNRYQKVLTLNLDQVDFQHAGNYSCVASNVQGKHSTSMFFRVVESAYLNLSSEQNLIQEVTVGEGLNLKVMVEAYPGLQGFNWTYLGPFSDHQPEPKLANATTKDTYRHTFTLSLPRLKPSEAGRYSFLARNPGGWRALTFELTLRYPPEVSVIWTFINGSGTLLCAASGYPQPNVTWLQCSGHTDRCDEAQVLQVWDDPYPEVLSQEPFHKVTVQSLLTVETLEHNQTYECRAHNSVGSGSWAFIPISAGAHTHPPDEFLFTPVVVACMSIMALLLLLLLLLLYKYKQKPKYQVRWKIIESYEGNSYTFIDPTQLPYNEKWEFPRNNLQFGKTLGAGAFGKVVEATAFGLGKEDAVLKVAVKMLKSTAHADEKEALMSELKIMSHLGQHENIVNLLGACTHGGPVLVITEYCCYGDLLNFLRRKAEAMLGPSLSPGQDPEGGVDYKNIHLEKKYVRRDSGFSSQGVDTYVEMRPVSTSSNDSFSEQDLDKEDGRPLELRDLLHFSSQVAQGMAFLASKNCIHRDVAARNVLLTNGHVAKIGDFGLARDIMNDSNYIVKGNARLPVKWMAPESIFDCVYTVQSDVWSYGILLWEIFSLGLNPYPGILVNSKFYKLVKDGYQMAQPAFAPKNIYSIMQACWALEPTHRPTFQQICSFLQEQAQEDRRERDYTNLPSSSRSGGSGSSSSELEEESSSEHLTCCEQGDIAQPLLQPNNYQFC

[35] = biological target: PIM1 (human) (UniProt P11309); settings: compound 10.0 µM
[36] = biological target: CDK15 (human) (UniProt Q96Q40); settings: compound 10.0 µM
[37] = biological target: BRSK1 (human) (UniProt Q8TDC3); settings: compound 10.0 µM
[38] = biological target: PRKCD (human) (UniProt Q05655); settings: compound 10.0 µM
[39] = test system: FLT3 (human), P36888 [N841I]; settings: compound 10.0 µM
[40] = biological target: MAP4K5 (human) (UniProt Q9Y4K4); settings: compound 10.0 µM
[41] = biological target: JAK1 JH2 pseudokinase (human) (UniProt P23458); settings: compound 10.0 µM
[42] = biological target: ROCK1 (human) (UniProt Q13464); settings: compound 10.0 µM
[43] = biological target: RPS6KA2 KD2 (human) (UniProt Q15349); settings: compound 10.0 µM

Chain of MAPK9 (human) (P45984 whole entry, looked up): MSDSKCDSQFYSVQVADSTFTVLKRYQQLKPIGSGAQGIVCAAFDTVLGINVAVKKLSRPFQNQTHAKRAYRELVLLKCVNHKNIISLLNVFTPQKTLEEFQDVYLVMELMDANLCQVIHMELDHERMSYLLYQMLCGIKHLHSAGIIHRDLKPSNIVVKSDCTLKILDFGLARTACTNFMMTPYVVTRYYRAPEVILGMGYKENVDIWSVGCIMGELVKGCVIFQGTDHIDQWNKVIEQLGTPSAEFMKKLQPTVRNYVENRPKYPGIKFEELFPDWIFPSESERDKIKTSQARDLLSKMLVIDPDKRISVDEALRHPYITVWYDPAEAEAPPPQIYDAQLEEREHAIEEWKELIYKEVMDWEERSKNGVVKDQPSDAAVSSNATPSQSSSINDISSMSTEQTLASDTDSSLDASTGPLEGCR
Chain of NLK (human) (Q9UBE8 whole entry, looked up): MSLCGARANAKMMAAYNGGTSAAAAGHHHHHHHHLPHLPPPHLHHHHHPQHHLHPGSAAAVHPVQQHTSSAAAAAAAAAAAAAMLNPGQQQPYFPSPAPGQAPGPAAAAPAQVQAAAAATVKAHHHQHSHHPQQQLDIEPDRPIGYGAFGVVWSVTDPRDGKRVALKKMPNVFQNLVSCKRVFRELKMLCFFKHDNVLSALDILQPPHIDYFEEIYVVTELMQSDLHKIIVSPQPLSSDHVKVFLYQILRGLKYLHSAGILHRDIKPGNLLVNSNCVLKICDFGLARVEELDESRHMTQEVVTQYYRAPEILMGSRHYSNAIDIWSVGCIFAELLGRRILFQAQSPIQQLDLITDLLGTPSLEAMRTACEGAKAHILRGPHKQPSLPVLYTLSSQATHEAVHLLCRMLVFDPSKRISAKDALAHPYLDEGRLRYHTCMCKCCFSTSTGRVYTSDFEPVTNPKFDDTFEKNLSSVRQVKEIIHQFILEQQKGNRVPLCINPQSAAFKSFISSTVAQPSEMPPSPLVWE

Structure (SMILES): Cc1ccc(NC(=O)c2ccc(NC(=O)/C=C/CN(C)C)cc2)cc1Nc1nccc(-c2cccnc2)n1
- Kd [1]: 160 nM
- kinase still bound, per cent of control ([1]; compound 10.0 µM): 1.1%
- kinase still bound, per cent of control [2]: 60%
- kinase still bound, per cent of control [3]: 100%
- kinase still bound, per cent of control [4]: 13%
- kinase still bound, per cent of control [5]: 88%
- kinase still bound, per cent of control [6]: 100%
- kinase still bound, per cent of control [7]: 100%
- kinase still bound, per cent of control [8]: 72%
- kinase still bound, per cent of control [9]: 100%
- kinase still bound, per cent of control [10]: 100%
- kinase still bound, per cent of control [11]: 100%
- kinase still bound, per cent of control [12]: 46%
- kinase still bound, per cent of control [13]: 100%
- kinase still bound, per cent of control [14]: 35%
- kinase still bound, per cent of control [15]: 100%
- kinase still bound, per cent of control [16]: 100%
- kinase still bound, per cent of control [17]: 47%
- kinase still bound, per cent of control [18]: 61%
- kinase still bound, per cent of control [19]: 100%
- kinase still bound, per cent of control [20]: 93%
- kinase still bound, per cent of control [21]: 100%
- kinase still bound, per cent of control [22]: 72%
- kinase still bound, per cent of control [23]: 100%
- kinase still bound, per cent of control [24]: 62%
- kinase still bound, per cent of control [25]: 100%
- kinase still bound, per cent of control [26]: 100%
- kinase still bound, per cent of control [27]: 82%
- kinase still bound, per cent of control [28]: 98%
- kinase still bound, per cent of control [29]: 100%
- kinase still bound, per cent of control [30]: 100%
- kinase still bound, per cent of control [31]: 57%
- kinase still bound, per cent of control [32]: 69%
- kinase still bound, per cent of control [33]: 0.15%
- kinase still bound, per cent of control [34]: 9.2%
- kinase still bound, per cent of control [35]: 69%
- kinase still bound, per cent of control [36]: 100%
- kinase still bound, per cent of control [37]: 53%
- kinase still bound, per cent of control [38]: 96%
- kinase still bound, per cent of control [39]: 92%
- kinase still bound, per cent of control [40]: 93%
- kinase still bound, per cent of control [41]: 5.1%
- kinase still bound, per cent of control [42]: 59%
- kinase still bound, per cent of control [43]: 86%
